Data set [1] concerns the target T1, BCRP (Homo sapiens, UniProt Q9UNQ0).
T1 sequence (Q9UNQ0 1-655): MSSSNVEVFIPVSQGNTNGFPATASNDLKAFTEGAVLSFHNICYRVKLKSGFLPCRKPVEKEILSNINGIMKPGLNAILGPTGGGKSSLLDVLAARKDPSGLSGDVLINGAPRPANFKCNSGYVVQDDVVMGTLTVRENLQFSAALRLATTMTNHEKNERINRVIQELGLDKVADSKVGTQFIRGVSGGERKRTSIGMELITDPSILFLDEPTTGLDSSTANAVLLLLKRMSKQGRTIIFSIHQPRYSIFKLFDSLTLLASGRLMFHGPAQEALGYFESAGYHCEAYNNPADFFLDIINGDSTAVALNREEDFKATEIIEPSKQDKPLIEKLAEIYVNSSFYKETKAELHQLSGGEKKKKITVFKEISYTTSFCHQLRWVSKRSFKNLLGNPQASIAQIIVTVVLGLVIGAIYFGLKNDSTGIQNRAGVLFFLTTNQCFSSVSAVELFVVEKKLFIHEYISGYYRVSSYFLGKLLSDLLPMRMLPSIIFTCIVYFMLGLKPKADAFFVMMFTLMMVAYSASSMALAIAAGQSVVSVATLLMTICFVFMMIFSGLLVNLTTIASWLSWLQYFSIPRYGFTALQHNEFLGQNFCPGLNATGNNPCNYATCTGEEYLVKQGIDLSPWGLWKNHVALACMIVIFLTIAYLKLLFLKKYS
As to the kind of experiment: Bidirectional transport across MDCKII and MDCKII-BCRP cell monolayers. The class given is in vitro ADME. The arrangement: expressed in transfected cells; host or cells: MDCKII. The following applies: positive control substrate 1 µM, mean ± SEM.

For data set [2], the system named is CYP1A2. As to the kind of experiment: CYP induction in cryopreserved human hepatocytes. To be noted: positive control, 50 µM, 48 h, n = 3 donors.
Data set [3] has as its system CYP2B6. As to the kind of experiment: CYP induction in cryopreserved human hepatocytes. The following applies: positive control, 1000 µM, 48 h, n = 3 donors.

For `COc1cc2nc(N3CCN(C(=O)c4ccco4)CC3)nc(N)c2cc1OC` [prazosin, reference compound], the efflux ratio in data set [1] (dog, MDCK, untransfected control cells) amounted to 1 ± 0.09; in data set [1] (human, BCRP-transfected monolayers), 14.9 ± 4.9. For the compound `COc1ccc2[nH]c([S+]([O-])Cc3ncc(C)c(OC)c3C)nc2c1` (stereo not shown) [Omeprazole, reference compound], the “mRNA Mean Fold Change ± SD CYP1A2” value in data set [2] is recorded as 26.4 ± 8.6. Consider `CCC1(c2ccccc2)C(=O)NC(=O)NC1=O` [Phenobarbitol, reference compound], for which the “mRNA Mean Fold Change ± SD CYP2B6” value in data set [3] is on record as 18.5 ± 1.9.

In general, efflux ratio refers to a quotient of directional permeabilities that is used to spot active efflux.

Values taken from article PMC8402619 (Viruses, 2021).
